Laboratory results taken from patent US7034035B2, “Fungicidal mono-, bi-, and tri-cycloheteroalkyl amides and their compositions, methods of use and preparation” (priority 1999, dated 2006).
Read-outs that look alike come from different tables or passages of the source.

Tests used:
[1] = tested on: Magnaporthe grisea (Pyricularia oryzae—PYRIOR); assay: microbe, parasite or virus in culture; assay type: cell-based; conditions: for PYRIOR in vitro Growth Inhibition: in vitro fungal growth; for inhibition of growth at 25 µg/mL: Pyricularia oryzae, read-out: PYRIOR in vitro Growth Inhibition
[2] = tested on: Mycosphaerella graminicola (Septoria tritici—SEPTTR); assay: Inhibition of in vitro fungal growth, SEPTTR; assay type: cell-based; set-up: inhibition of growth: dose or concentration left out as unconfirmed; conditions: for inhibition of growth: Zymoseptoria tritici, in vitro fungal growth
[3] = tested on: Puccinia recondita—PUCCRT; assay: Brown Rust of Wheat, in vivo whole plant, 24 Hour Protectant; conditions: inoculated after 24 hours; for pest or weed control at 100 ppm: Puccinia, read-out: PUCCRT in vivo 1 Day Protectant
[4] = tested on: Rhizoctonia solani (RHIZSO); assay: microbe, parasite or virus in culture; assay type: cell-based; conditions: for inhibition of growth at 25 µg/mL: Rhizoctonia solani, read-out: RHIZSO in vitro Growth Inhibition
Ustilago maydis (USTIMA) = assay: microbe, parasite or virus in culture; assay type: cell-based; conditions: for inhibition of growth at 25 µg/mL: Mycosarcoma maydis, read-out: USTIMA in vitro Growth Inhibition
[5] = tested on: Leptosphaeria nodorum—LEPTNO; assay: Glume Blotch of Wheat, in vivo whole plant, 24 Hour Protectant; conditions: inoculated after 24 hours; for pest or weed control at 100 ppm: Leptosphaeria, 24 h, read-out: LEPTNO in vivo 1 Day Protectant
Erysiphe graminis—ERYSGT = assay: Powdery Mildew of Wheat, in vivo whole plant, 24 Hour Protectant; conditions: for ERYSGT in vivo 1 Day Protectant: wheat (cultivar Monon), sprayed at 100 ppm, inoculated after 24 hours, control of fungal infection vs untreated plants; for pest or weed control at 100 ppm: Erysiphe, in Triticum aestivum, 24 h, read-out: ERYSGT in vivo 1 Day Protectant
[6] = tested on: Phytophthora infestans—PHYTIN; assay: whole plant or invertebrate; assay type: in vivo; conditions: for PHYTIN in vivo 1 Day Protectant: tomato (cultivar Rutgers), sprayed at 100 ppm, inoculated after 24 hours, control of fungal infection vs untreated plants; for pest or weed control at 100 ppm: Phytophthora, in Solanum lycopersicum, 24 h, read-out: PHYTIN in vivo 1 Day Protectant
[7] = tested on: Phytophthora infestans (PHYTIN); assay: microbe, parasite or virus in culture; assay type: cell-based; conditions: for PHYTIN in vitro Growth Inhibition: in vitro fungal growth; for inhibition of growth at 25 µg/mL: Phytophthora infestans, read-out: PHYTIN in vitro Growth Inhibition
[8] = tested on: Stagonospora nodorum (Leptosphaeria nodorum—LEPTNO); assay: Inhibition of in vitro fungal growth, LEPTNO; assay type: cell-based; set-up: inhibition of growth: dose or concentration left out as unconfirmed; conditions: for inhibition of growth: Leptosphaeria, in vitro fungal growth
Septoria tritici—SEPTTR = assay: Leaf Blotch of Wheat, in vivo whole plant, 24 Hour Protectant; conditions: inoculated after 24 hours; for pest or weed control at 100 ppm: Zymoseptoria tritici, read-out: SEPTTR in vivo 1 Day Protectant
[9] = wheat (cultivar Yuma), sprayed at 100 ppm, control of fungal infection vs untreated plants
[10] = wheat plants sprayed at 100 ppm, control vs untreated plants

| Compound | SEPTTR in vitro Growth Inhibition [2] | PUCCRT in vivo 1 Day Protectant [3, 9] | RHIZSO in vitro Growth Inhibition [4] | USTIMA in vitro Growth Inhibition (Ustilago maydis (USTIMA)) | LEPTNO in vivo 1 Day Protectant [5, 9] | ERYSGT in vivo 1 Day Protectant (Erysiphe graminis—ERYSGT) | LEPTNO in vitro Growth Inhibition [8] | SEPTTR in vivo 1 Day Protectant (Septoria tritici—SEPTTR; [9]) | pest or weed control at 100 ppm (Erysiphe graminis—ERYSGT) [%] | pest or weed control at 100 ppm [6] [%] | melting point | also measured |
| --- | --- | --- | --- | --- | --- | --- | --- | --- | --- | --- | --- | --- |
| C[C@H]1C2CC([C@H]3CCC[C@@H]23)[C@@H]1NC(=O)c1ncccc1O (stereo partly shown) [Compound 207] | + (key: +: at least 80% growth inhibition; −: less than 80% growth inhibition) | − (<25% control of fungal infection) | − (key: +: at least 80% growth inhibition; −: less than 80% growth inhibition) | − (key: +: at least 80% growth inhibition; −: less than 80% growth inhibition) | − (<25% control of fungal infection) | − (<25% control of fungal infection) | + (key: +: at least 80% growth inhibition; −: less than 80% growth inhibition) | − (<25% control of fungal infection) | – | – | – | PYRIOR in vitro Growth Inhibition [1]: + (at least 80% growth inhibition); PHYTIN in vivo 1 Day Protectant [6]: − (<25% control of fungal infection); PHYTIN in vitro Growth Inhibition [7]: − (less than 80% growth inhibition) |
| COc1ccnc(C(=O)Nc2cccc(CC3CC(C)(C)OC(C)(C)C3)c2)c1O [Compound 460] | – | – | – | – | – | – | – | – | 25 to 74 | < 25 | 149 to 153 °C | pest or weed control at 100 ppm [3, 10]: 25 to 74%; pest or weed control at 100 ppm [5, 10]: 25 to 74%; pest or weed control at 100 ppm (Septoria tritici—SEPTTR; [10]): 25 to 74% |
| COc1ccnc(C(=O)NC2CC(C)(C)C(OC(=O)c3cccc(Cl)n3)C(C)(C)C2)c1O (stereo not shown) [Compound 269] | – | – | − (key: +: at least 80% growth inhibition; −: less than 80% growth inhibition) | − (key: +: at least 80% growth inhibition; −: less than 80% growth inhibition) | – | – | – | – | – | – | 55 to 56 °C | – |
| COC(=O)C(Cc1ccc(OCc2ccccc2)cc1)NC(=O)c1nccc(OC)c1O (single isomer, unassigned) [Compound 338] | – | – | – | – | – | – | – | – | – | – | – | inhibition of growth at 25 µg/mL [1]: < 80%; inhibition of growth [2]: < 80%; pest or weed control at 100 ppm [3, 9]: 75 to 100%; inhibition of growth at 25 µg/mL [4]: < 80%; inhibition of growth at 25 µg/mL (Ustilago maydis (USTIMA)): > 80%; pest or weed control at 100 ppm [5, 9]: 75 to 100%; inhibition of growth at 25 µg/mL [7]: < 80%; inhibition of growth [8]: < 80% |
| CC1(C)CC(NC(=O)c2ccnnc2O)CC(C)(C)C1 [Compound 539] | – | – | – | – | – | – | – | – | < 25 | < 25 | 263 to 265 °C | pest or weed control at 100 ppm [3, 10]: 25 to 74%; pest or weed control at 100 ppm [5, 10]: 25 to 74%; pest or weed control at 100 ppm (Septoria tritici—SEPTTR; [10]): 25 to 74% |
| COc1ccnc(C(=O)N[C@@H]2CC3CC2[C@@H](C(=O)OC(C)C)C3)c1O (stereo partly shown) [Compound 298] | – | – | – | – | – | – | – | – | < 25 | < 25 | – | inhibition of growth at 25 µg/mL [1]: < 80%; inhibition of growth [2]: < 80%; pest or weed control at 100 ppm [3, 9]: 25 to 74%; inhibition of growth at 25 µg/mL [4]: > 80%; inhibition of growth at 25 µg/mL (Ustilago maydis (USTIMA)): < 80%; pest or weed control at 100 ppm [5, 9]: 25 to 74%; inhibition of growth at 25 µg/mL [7]: < 80%; inhibition of growth [8]: < 80%; pest or weed control at 100 ppm (Septoria tritici—SEPTTR; [9]): 25 to 74% |
| COc1ccnc(C(=O)NC2CCN(Cc3ccccc3)CC2)c1O.O=C(O)/C=C\C(=O)O [Compound 305] | − (key: +: at least 80% growth inhibition; −: less than 80% growth inhibition) | − (<25% control of fungal infection) | − (key: +: at least 80% growth inhibition; −: less than 80% growth inhibition) | − (key: +: at least 80% growth inhibition; −: less than 80% growth inhibition) | − (<25% control of fungal infection) | − (<25% control of fungal infection) | − (key: +: at least 80% growth inhibition; −: less than 80% growth inhibition) | − (<25% control of fungal infection) | – | 75 to 100 | – | – |
| O=C(N[C@H]1CC2CC1[C@@H]1CCC[C@H]21)c1ncccc1O (stereo partly shown) [Compound 206] | + (key: +: at least 80% growth inhibition; −: less than 80% growth inhibition) | − (<25% control of fungal infection) | + (key: +: at least 80% growth inhibition; −: less than 80% growth inhibition) | − (key: +: at least 80% growth inhibition; −: less than 80% growth inhibition) | − (<25% control of fungal infection) | − (<25% control of fungal infection) | + (key: +: at least 80% growth inhibition; −: less than 80% growth inhibition) | − (<25% control of fungal infection) | – | – | – | PYRIOR in vitro Growth Inhibition [1]: + (at least 80% growth inhibition); PHYTIN in vivo 1 Day Protectant [6]: − (<25% control of fungal infection); PHYTIN in vitro Growth Inhibition [7]: − (less than 80% growth inhibition) |
| CC(C)C(=O)O[C@H]1[C@H](C)OC(=O)[C@@H](NC(=O)c2cccnc2O)COC(=O)[C@@H]1Cc1ccccc1 [Compound 523] | – | – | – | – | – | – | – | – | 25 to 74 | 25 to 74 | 188 to 190 °C (dec.) | pest or weed control at 100 ppm [3, 10]: 25 to 74%; pest or weed control at 100 ppm [5, 10]: 75 to 100%; pest or weed control at 100 ppm (Septoria tritici—SEPTTR; [10]): 25 to 74% |
| N-(3-Hydroxy-4-Methoxy-2-Pyridylcarbonyl)-2-Amino-2-Deoxy-alpha-D-Glucopyranose [Compound 334] | − (key: +: at least 80% growth inhibition; −: less than 80% growth inhibition) | − (<25% control of fungal infection) | − (key: +: at least 80% growth inhibition; −: less than 80% growth inhibition) | − (key: +: at least 80% growth inhibition; −: less than 80% growth inhibition) | + (25-74% control of fungal infection) | − (<25% control of fungal infection) | − (key: +: at least 80% growth inhibition; −: less than 80% growth inhibition) | − (<25% control of fungal infection) | – | – | – | PYRIOR in vitro Growth Inhibition [1]: − (less than 80% growth inhibition); PHYTIN in vivo 1 Day Protectant [6]: − (<25% control of fungal infection); PHYTIN in vitro Growth Inhibition [7]: − (less than 80% growth inhibition) |
| Cc1ccnc(C(=O)NC2C(=O)OC(=O)[C@H](Cc3ccccc3)[C@@H](OC(=O)C(C)C)[C@H](C)OC2=O)c1O (stereo partly shown) [Compound 237] | – | – | – | – | – | – | – | – | < 25 | < 25 | 122 to 134 °C | inhibition of growth at 25 µg/mL [1]: < 80%; inhibition of growth [2]: < 80%; pest or weed control at 100 ppm [3, 9]: 75 to 100%; inhibition of growth at 25 µg/mL [4]: < 80%; inhibition of growth at 25 µg/mL (Ustilago maydis (USTIMA)): < 80%; pest or weed control at 100 ppm [5, 9]: 25 to 74%; inhibition of growth at 25 µg/mL [7]: < 80%; inhibition of growth [8]: < 80%; pest or weed control at 100 ppm (Septoria tritici—SEPTTR; [9]): 25 to 74% |
